Test results published in US10307410B2, “Mcl-1 modulating compounds for cancer treatment” (CENTRE REGIONAL DE LUTTE CONTRE LE CANCER FRANCOIS BACLESSE, priority 2014, dated 2019).
Entries after “also recorded” stand apart in the source; their conditions may differ.

Assays:
Mcl-1/Puma interaction = target: T1, Mcl-1/Puma interaction (Homo sapiens, UniProt Q07820); assay: BRET assay, Mcl-1/Puma interaction; format: cell-based; conditions: BRET in Hela cells, 10 μM, 16 hours
T1 construct: expressed in transfected cells; host or cells: HeLa cells
Procedure: (§1) Hela cells were seeded on 6-well plates and transfected with 200 ng/well of plasmid pRLuc-Bax, pRLuc-Puma or pRLuc-Noxa coding for BRET donors and 1 µg/well of peYFP-Bcl-xL or peYFP-Mcl-1 coding for BRET acceptors (or with pCMV-Bcl-xL or pCMV-Mcl-1 for control). Twenty-four hours after transfection, cells were trypsinized and re-seeded into white 96 well plate flat bottom, incubated for another day, and then treated with drugs for 16 hours at 10 μM. Light emission at 485 nm and 530 nm was measured consecutively using the Mithras fluorescence-luminescence detector LB 940 (Berthold) after adding the luciferase substrate, coelenterazine H (Uptima) at a final concentration of 5 μM. BRET ratios were calculated as described [Terrillon et al. (2003) Mol Endocrinol 17, 677-691, Vo et al. (2012) Eur J Med Chem., 286-93].

Noxa/Mcl-1 interaction = target: T2, Noxa/Mcl-1 interaction (Homo sapiens, UniProt Q07820); assay: BRET assay, Noxa/Mcl-1 interaction; format: cell-based; conditions: BRET in Hela cells, 10 μM, 16 hours
T2 construct: expressed in transfected cells; host or cells: HeLa cells
Procedure: as §1

[1] = test system: IGROV1-R10 chemoresistant ovarian cancer cells; assay: Pyridoclax / ABT-737 association, apoptotic cell death; format: cell-based; conditions: IGROV1-R10, single agent
Procedure: (§2) FIG. 4 represents the effect of the association of Pyridoclax with ABT-737 on chemoresistant ovarian cancer cells IGROV1-R10 (top) and SKOV3 (bottom). Cells were concomitantly (A, E) or sequentially (B) exposed to 25 μM Pyridoclax and 5 μM ABT-737, and cellular effects were assessed either longitudinally (A, B, E) or after 24 h (C, D, F). [A, B, E] real time cellular activity assessed by impedancmetry (xCELLigence technology), after concomitant exposure (A, E) or sequential exposure (B; 24 h Pyridoclax, then ABT-737). [C]: Cellular morphology and DNA content histograms after a 24 h concomitant exposure. [D and F]: PARP and caspase 3 cleavage after a 24 h concomitant exposure.
(§3) Adherent and floating cells were pooled, washed with 1×PBS and centrifuged at 200 g for 5 min before staining by Annexin V, propidium iodide or both, as recommended by the manufacturer (Roche Diagnostic, Indianapolis, USA). Briefly, 100 μl of Annexin V—Flit or propidium iodide or both were added on the cells pellet (10^6 cells) and incubated 15 minutes at room temperature in obscurity. 500 μl of sample buffer was then added on the suspensions that were thereafter analyzed using a Gallios flow cytometer (Beckman Coulter, Roissy, France) and cell cycle distribution was determined using Kaluza acquisition software (Beckman Coulter).
(§4) Cells were rinsed with ice-cold PBS, suspended in a lysis buffer [RIPA:NaCl 150 mM, Tris (pH 8) 50 mM, Triton X100 1%, PMSF 4 mM, EDTA 5 mM, NaF 10 mM, NaPPi 10 mM, Na3OV4 1 mM, aprotinin 0.5 μl/ml and 4.6 ml ultra pure water] and incubated on ice for 30 minutes. Lysates were collected after centrifugation (13200 g, 10 min, 4° C.) and protein concentrations were determined using the Bradford assay (Bio-Rad, Hercules, USA). 20 μg of protein were separated by SDS-PAGE on a 4-12% gradient polyacrylamide gel (Invitrogen, Cergy-Pontoise, France) and transferred to Hybond-PVDF membranes (Amersham, Orsay, France). […]

[2] = test system: SKOV3 chemoresistant ovarian cancer cells; assay: as above; format: cell-based, human; conditions: SKOV3, single agent
Procedure: as §2, §3, §4

T1 sequence (Q07820 whole entry): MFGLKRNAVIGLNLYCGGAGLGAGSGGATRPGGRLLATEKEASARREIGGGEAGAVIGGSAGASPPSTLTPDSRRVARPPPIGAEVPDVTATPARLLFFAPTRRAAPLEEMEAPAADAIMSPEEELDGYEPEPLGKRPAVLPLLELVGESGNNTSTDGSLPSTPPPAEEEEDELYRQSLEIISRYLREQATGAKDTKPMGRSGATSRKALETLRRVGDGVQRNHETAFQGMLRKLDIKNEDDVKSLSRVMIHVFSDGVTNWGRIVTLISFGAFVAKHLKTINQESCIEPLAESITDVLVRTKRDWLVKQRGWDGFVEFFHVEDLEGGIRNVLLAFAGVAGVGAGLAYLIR
T2 sequence (Q07820 whole entry): as above

effect on Noxa/Mcl-1 interaction (Noxa/Mcl-1 interaction): not able to modify these interactions
Structure (SMILES): CN(C)CC[C@H](CSc1ccccc1)Nc1ccc(S(=O)(=O)NC(=O)c2ccc(N3CCN(Cc4ccccc4-c4ccc(Cl)cc4)CC3)cc2)cc1[N+](=O)[O-] [ABT-737, 4-[4-[[2-(4-chlorophenyl)phenyl]methyl]piperazin-1-yl]-N-[4-[[(2R)-4-(dimethylamino)-1-phenylsulfanylbutan-2-yl]amino]-3-nitrophenyl]sulfonylbenzamide, reference compound]
effect on Mcl-1/Puma interaction (Mcl-1/Puma interaction): not able to modify these interactions; also recorded: not able to modify this interaction
cell death as single agent [1]: neither ABT-737 nor Pyridoclax induced cell death as single agents
cell death as single agent [2]: neither ABT-737 nor Pyridoclax induced cell death as single agents
